Measurements published in PubChem BioAssay AID298 (DTP/NCI, 2004).
Several values for one entry are separate records, joined by “and”; a condition that tells them apart may be missing. Equal values may be shown once. Inconclusive results are not listed.

Tested on: MX-1 breast xenograft, intrarenal, nude mice, tumor weight
Assay: NCI In Vivo Anticancer Drug Screen. Data for tumor model Human Mammary Carcinoma MX-1 Xenograft (intrarenal inoculation) in NU/NU BALB/C (nude) mice
Conditions: endpoint: mean tumor weight change, higher = larger tumour
How it was run: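 Mice w/ transplanted tumors, drug vs vehicle; endpoint survival or tumor size; value = T/C.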

[1] = dose: 12.5 mg/kg/injection, schedule: Q04DX003 (ip), vehicle: Klucel (hydroxypropylcellulose) (HPC)

`COC(=O)c1ccc(N=NN(C)COC(C)=O)cc1` was tested, and the T/C (dose: 60.0 mg/kg/injection, schedule: Q04DX003 (ip), vehicle: Klucel (hydroxypropylcellulose) (HPC)) was 50 % of control, the T/C (dose: 120.0 mg/kg/injection, schedule: Q04DX003 (ip), vehicle: Klucel (hydroxypropylcellulose) (HPC)) was 21 % of control and the T/C (dose: 400.0 mg/kg/injection, schedule: Q04DX003 (ip), vehicle: Klucel (hydroxypropylcellulose) (HPC)) was 56 % of control and 58 % of control. The T/C (dose: 666.67 mg/kg/injection, schedule: Q04DX003 (ip), vehicle: Klucel (hydroxypropylcellulose) (HPC)) was 33 % of control and 40 % of control.
`Nc1ncnc2c1c1c(=O)[nH]c(=O)[nH]c1n2C1OC(CO)C(O)C1O` (stereo unspecified) was tested, and the T/C (dose: 112.5 mg/kg/injection, schedule: Q04DX003 (sc), vehicle: distilled water + Tween-80) was 62 % of control, the T/C (dose: 225.0 mg/kg/injection, schedule: Q04DX003 (sc), vehicle: distilled water + Tween-80) was 63 % of control and the T/C (dose: 450.0 mg/kg/injection, schedule: Q04DX003 (sc), vehicle: distilled water + Tween-80) was 31 % of control. For the same molecule, the T/C (dose: 900.0 mg/kg/injection, schedule: Q04DX003 (sc), vehicle: distilled water + Tween-80) was 25 % of control.
With `CCCCNP1(NCCCC)=NP(NCCCC)(NCCCC)=NP(NCCCC)(NCCCC)=NP(NCCCC)(NCCCC)=N1` the T/C (dose: 150.0 mg/kg/injection, schedule: Q04DX003 (ip), vehicle: saline with Tween-80) was 89 % of control and the T/C (dose: 300.0 mg/kg/injection, schedule: Q04DX003 (ip), vehicle: saline with Tween-80) was 73 % of control.
For `O=C1N[C@H]2[C@H](CS[C@H]2CCCCC(=O)N(CCP(c2ccccc2)c2ccccc2)CCP(c2ccccc2)c2ccccc2)N1`, the T/C (dose: 600.0 mg/kg/injection, schedule: Q04DX003 (sc), vehicle: Klucel (hydroxypropylcellulose) (HPC)) was 108 % of control, the T/C (dose: 1200.0 mg/kg/injection, schedule: Q04DX003 (sc), vehicle: Klucel (hydroxypropylcellulose) (HPC)) was 97 % of control and the T/C (dose: 2400.0 mg/kg/injection, schedule: Q04DX003 (sc), vehicle: Klucel (hydroxypropylcellulose) (HPC)) was 115 % of control.
For `CCC(=O)[O][Bi]([c]1ccccc1)[c]1ccccc1`, the T/C [1] was 100 % of control and the T/C (dose: 25.0 mg/kg/injection, schedule: Q04DX003 (ip), vehicle: Klucel (hydroxypropylcellulose) (HPC)) was 77 % of control.
`NC(Cc1ccc(N(CCCl)CCCl)cc1)C(=O)O` (stereo unspecified) was tested, and the T/C (dose: 10.0 mg/kg/injection, schedule: Q04DX003 (sc), vehicle: Klucel (hydroxypropylcellulose) (HPC)) was -85 % of control and -98 % of control and the T/C (dose: 20.0 mg/kg/injection, schedule: Q04DX003 (sc), vehicle: Klucel (hydroxypropylcellulose) (HPC)) was -90 % of control.
With `CCCCNc1ccc2nnc(C)n2n1` the T/C (dose: 150.0 mg/kg/injection, schedule: Q04DX003 (ip), vehicle: DMSO) was 94 % of control and 108 % of control and the T/C (dose: 300.0 mg/kg/injection, schedule: Q04DX003 (ip), vehicle: DMSO) was 78 % of control and 88 % of control.
With `C=Cc1cc(OC)c2c(c1)c(=O)oc1c2cc(OC)c2c(O)ccc(C3OC(C(C)O)C(O)C3O)c21` (stereo unspecified) the T/C (dose: 37.5 mg/kg/injection, schedule: Q04DX003 (ip), vehicle: Klucel (hydroxypropylcellulose) (HPC)) was 91 % of control, the T/C (dose: 75.0 mg/kg/injection, schedule: Q04DX003 (ip), vehicle: Klucel (hydroxypropylcellulose) (HPC)) was 51 % of control and 70 % of control and the T/C (dose: 300.0 mg/kg/injection, schedule: Q04DX003 (ip), vehicle: Klucel (hydroxypropylcellulose) (HPC)) was 28 % of control and 29 % of control.
In the case of `Cc1c(N)nc(C(CC(N)=O)NCC(N)C(N)=O)nc1C(=O)NC(C(=O)NC(C)C(O)C(C)C(=O)NC(C(=O)NCCc1nc(-c2nc(C(=O)NCCCNC(C)c3ccccc3)cs2)cs1)C(C)O)C(OC1OC(CO)C(O)C(O)C1OC1OC(CO)C(O)C(OC(N)=O)C1O)c1cnc[nH]1` (stereo unspecified), the T/C (dose: 8.0 mg/kg/injection, schedule: Q01DX010 (sc), vehicle: saline) is reported as 69 % of control, the T/C (dose: 16.0 mg/kg/injection, schedule: Q01DX010 (sc), vehicle: saline) is reported as 55 % of control and the T/C (dose: 32.0 mg/kg/injection, schedule: Q01DX010 (sc), vehicle: saline) is reported as 43 % of control.
`CO[C@@]12[C@H](COC(N)=O)C3=C(C(=O)C(C)=C(N)C3=O)N1C[C@@H]1N[C@@H]12` was tested, and the T/C (dose: 1.5 mg/kg/injection, schedule: Q04DX003 (sc), vehicle: saline) was 9 % of control and 14 % of control, the T/C (dose: 6.0 mg/kg/injection, schedule: Q04DX003 (ip), vehicle: suspension in saline) was -100 % of control and the T/C (dose: 8.0 mg/kg/injection, schedule: Q04DX003 (ip), vehicle: suspension in saline) was -100 % of control.
In the case of `O=C(CCCN1CCC(O)(c2cccc(C(F)(F)F)c2)CC1)c1ccc(F)cc1`, the T/C (dose: 25.0 mg/kg/injection, schedule: Q01DX010 (sc), vehicle: Klucel (hydroxypropylcellulose) (HPC)) is reported as 33 % of control.
In the case of `CC(C)N1C(=O)N(Cl)C2C1N(Cl)C(=O)N2Cl` (stereo unspecified), the T/C (dose: 25.0 mg/kg/injection, schedule: Q04DX003 (ip), vehicle: saline with Tween-80) is reported as 113 % of control.
For `CN(CO)c1nc(N(C)CO)nc(N(C)CO)n1`, the T/C (dose: 6.25 mg/kg/injection, schedule: Q01DX010 (sc), vehicle: saline) was 86 % of control, the T/C (dose: 12.5 mg/kg/injection, schedule: Q01DX010 (sc), vehicle: saline) was 30 % of control and the T/C (dose: 25.0 mg/kg/injection, schedule: Q01DX010 (sc), vehicle: saline) was 2 % of control. The T/C (dose: 100.0 mg/kg/injection, schedule: Q01DX010 (sc), vehicle: saline) was 1 % of control.
With `C/C=C/C=C\C=C/C(O)CC(OP(=O)(O)O)C(C)(O)/C=C/C1CC=CC(=O)O1` (stereo unspecified) the T/C (dose: 6.0 mg/kg/injection, schedule: Q04DX003 (ip), vehicle: water) was 86 % of control, the T/C (dose: 12.0 mg/kg/injection, schedule: Q04DX003 (ip), vehicle: water) was 56 % of control and the T/C (dose: 24.0 mg/kg/injection, schedule: Q04DX003 (ip), vehicle: water) was 50 % of control.
In the case of `CC(C)CCC(=O)c1ccoc1`, the T/C (dose: 0.75 mg/kg/injection, schedule: Q01DX010 (ip), vehicle: saline with Tween-80) is reported as 101 % of control, the T/C (dose: 1.5 mg/kg/injection, schedule: Q01DX010 (ip), vehicle: saline with Tween-80) is reported as 103 % of control and the T/C (dose: 3.0 mg/kg/injection, schedule: Q01DX010 (ip), vehicle: saline with Tween-80) is reported as 84 % of control.
In the case of `CC(=O)ON(C(C)=O)c1ccc(C(N)=O)cc1`, the T/C (dose: 600.0 mg/kg/injection, schedule: Q04DX003 (sc), vehicle: saline with Tween-80) is reported as 52 % of control and the T/C (dose: 2400.0 mg/kg/injection, schedule: Q04DX003 (sc), vehicle: saline with Tween-80) is reported as 98 % of control.
In the case of `N#CC(C#N)=NNc1ccc2cn[nH]c2c1`, the T/C [1] is reported as 94 % of control, the T/C (dose: 50.0 mg/kg/injection, schedule: Q04DX003 (ip), vehicle: Klucel (hydroxypropylcellulose) (HPC)) is reported as 174 % of control and the T/C (dose: 100.0 mg/kg/injection, schedule: Q04DX003 (ip), vehicle: Klucel (hydroxypropylcellulose) (HPC)) is reported as 106 % of control.
For `C=CC(C)(C)n1cc(C2=C(O)C(=O)C(c3cn(C(C)(C)C=C)c4ccccc34)=C(O)C2=O)c2ccccc21`, the T/C (dose: 50.0 mg/kg/injection, schedule: Q04DX003 (sc), vehicle: Klucel (hydroxypropylcellulose) (HPC)) was 80 % of control, the T/C (dose: 100.0 mg/kg/injection, schedule: Q04DX003 (sc), vehicle: Klucel (hydroxypropylcellulose) (HPC)) was 96 % of control and the T/C (dose: 200.0 mg/kg/injection, schedule: Q04DX003 (sc), vehicle: Klucel (hydroxypropylcellulose) (HPC)) was 76 % of control. The T/C (dose: 400.0 mg/kg/injection, schedule: Q04DX003 (sc), vehicle: Klucel (hydroxypropylcellulose) (HPC)) was 74 % of control.
`CC(=O)/C(=C\c1ccc(/C=C(\C(C)=O)C(=O)CCN(C)C)cc1)C(=O)CCN(C)C` was tested, and the T/C (dose: 100.0 mg/kg/injection, schedule: Q04DX003 (ip), vehicle: saline with Tween-80) was 122 % of control and the T/C (dose: 200.0 mg/kg/injection, schedule: Q04DX003 (ip), vehicle: saline with Tween-80) was 90 % of control.
In the case of `CO[C@H]1Nc2c(ccc(C)c2O)C(=O)N2C=C(/C=C/C(N)=O)C[C@@H]12`, the T/C (dose: 0.25 mg/kg/injection, schedule: Q04DX003 (sc), vehicle: saline + alcohol) is reported as 41 % of control, the T/C (dose: 0.5 mg/kg/injection, schedule: Q04DX003 (sc), vehicle: saline + alcohol) is reported as 12 % of control and the T/C (dose: 1.0 mg/kg/injection, schedule: Q04DX003 (sc), vehicle: saline + alcohol) is reported as -58 % of control. The T/C (dose: 2.0 mg/kg/injection, schedule: Q04DX003 (sc), vehicle: saline + alcohol) was -98 % of control.
With `Nc1nc(Br)nc2c1ncn2C1CC(O)C(CO)O1` (stereo unspecified) the T/C (dose: 7.5 mg/kg/injection, schedule: Q03DX003 (ip), vehicle: saline) was 109 % of control, the T/C (dose: 15.0 mg/kg/injection, schedule: Q03DX003 (ip), vehicle: saline) was 88 % of control and the T/C (dose: 30.0 mg/kg/injection, schedule: Q03DX003 (ip), vehicle: saline) was 43 % of control. For the same molecule, the T/C (dose: 60.0 mg/kg/injection, schedule: Q03DX003 (ip), vehicle: saline) was 59 % of control and the T/C (dose: 120.0 mg/kg/injection, schedule: Q03DX003 (ip), vehicle: saline) was 65 % of control.
In the case of `OCC1OC(n2cnc3c(=S)nc[nH]c32)C(O)C1O` (stereo unspecified), the T/C (dose: 300.0 mg/kg/injection, schedule: Q04DX003 (sc), vehicle: saline) is reported as 86 % of control, the T/C (dose: 600.0 mg/kg/injection, schedule: Q04DX003 (sc), vehicle: saline) is reported as 58 % of control and the T/C (dose: 1200.0 mg/kg/injection, schedule: Q04DX003 (sc), vehicle: saline) is reported as 59 % of control and 75 % of control. For the same molecule, the T/C (dose: 1600.0 mg/kg/injection, schedule: Q04DX003 (sc), vehicle: saline) was 49 % of control, the T/C (dose: 2000.0 mg/kg/injection, schedule: Q04DX003 (sc), vehicle: saline) was 65 % of control and the T/C (dose: 2400.0 mg/kg/injection, schedule: Q04DX003 (sc), vehicle: saline) was 23 % of control and 39 % of control.
